According to patent US6525001B1, “Substituted pyrimidine and pyridine herbicides” (Mid-American Commercialization Corporation, priority 1997, dated 2003):

Tests used:
Assay type in all cases: in vivo
Parameters in all cases: key: 0 is no effect; 10 is complete control
[1] = test system: bamyardgrass (Echinochloa crus-galli); test: Test B flood test; settings: for Plant response rating, Barnyardgrass: Postemergence (flood test species)
In short: (§1)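 Read-out is a visual response score from 0 (no effect) to 10 (complete control), assigned by comparison with untreated controls. Treatment was applied at the 2-leaf stage, and plants stayed in the greenhouse for twelve to sixteen days before scoring.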

[2] = test system: rice (Oryza sativa); test: Test B flood test; settings: for Plant response rating, Rice: Postemergence (flood test species)
In short: as §1

[3] = test system: duck salad (Heteranthera limosa); test: Test B flood test; settings: for Plant response rating, Ducksalad: Postemergence (flood test species)
In short: as §1

[4] = test system: smallflower flatsedge (Cyperus difformis); test: Test B flood test; settings: for Plant response rating, S. Flatsedge: Postemergence (flood test species)
In short: as §1

[5] = test system: rape (Brassica napus); test: Test B pre-/postemergence
In short: (§2)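 Compounds in a surfactant-containing, non-phytotoxic solvent blend are applied to freshly planted seed (preemergence) and, concurrently, to seedlings of 2 to 18 cm at 1–4 leaves (postemergence). Plants stay in the greenhouse twelve to sixteen days and are then scored visually from 0 (no effect) to 10 (complete control).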

[6] = test system: velvetleaf (Abutilon theophrasti); test: Test B pre-/postemergence
In short: as §2

[7] = test system: corn (Zea mays); test: Test B pre-/postemergence
In short: as §2

[8] = test system: sugar beet (Beta vulgaris); test: Test B pre-/postemergence
In short: as §2

[9] = test system: soybean (Glycine max); test: Test B pre-/postemergence
In short: as §2

[10] = test system: crabgrass (Digitaria sanguinalis); test: Test B pre-/postemergence
In short: as §2

[11] = test system: wheat (Triticum aestivum); test: Test B pre-/postemergence
In short: as §2

[12] = test system: blackgrass (Alopecurus myosuroides); test: Test B pre-/postemergence
In short: as §2

[13] = test system: cocklebur (Xanthium strumarium); test: Test B pre-/postemergence
In short: as §2

[14] = test system: purple nutsedge (Cyperus rotundus); test: Test B pre-/postemergence
In short: as §2

[15] = test system: pigweed (Amaranthus retroflexus); test: Test B pre-/postemergence
In short: as §2

[16] = Rate 62 g/ha, Postemergence (flood test)
[17] = Rate 125 g/ha, Postemergence section (flood test species)
[18] = Preemergence, Rate 62 g/ha, scale of 0 to 10

SMILES: Cc1cnc(-c2ccc(C(F)(F)F)cc2)nc1Cn1ccc(C#N)n1 [Compound 53]
- Barnyardgrass plant response rating [1, 16]: 1
- Barnyardgrass plant response rating [1, 17]: 2
- Plant response rating, Barnyardgrass ([1]; Rate 250 g/ha): 2
- Plant response rating, Barnyardgrass ([1]; Rate 500 g/ha): 2
- Rice plant response rating [2, 16]: 1
- Rice plant response rating [2, 17]: 1
- Plant response rating, Rice ([2]; Rate 250 g/ha): 1
- Plant response rating, Rice ([2]; Rate 500 g/ha): 2
- Ducksalad plant response rating [3, 16]: 0
- Ducksalad plant response rating [3, 17]: 2
- Plant response rating, Ducksalad ([3]; Rate 250 g/ha): 5
- Plant response rating, Ducksalad ([3]; Rate 500 g/ha): 7
- S. Flatsedge plant response rating [4, 16]: 5
- S. Flatsedge plant response rating [4, 17]: 8
- Plant response rating, S. Flatsedge ([4]; Rate 250 g/ha): 9
- Plant response rating, S. Flatsedge ([4]; Rate 500 g/ha): 9
- Plant response rating, Rape [5, 18]: 2
- Rape plant response rating ([5]; Rate 62 g/ha, Postemergence): 8
- Rape plant response rating ([5]; Rate 125 g/ha, Postemergence): 8
- Plant response rating, Rape ([5]; Rate 125 g/ha, Preemergence): 5
- Plant response rating, Rape ([5]; Rate 250 g/ha, Postemergence): 8
- Plant response rating, Rape ([5]; Rate 250 g/ha, Preemergence): 7
- Plant response rating, Rape ([5]; Rate 500 g/ha, Postemergence): 9
- Plant response rating, Rape ([5]; Rate 500 g/ha, Preemergence): 7
- Plant response rating, Velvetleaf [6, 18]: 0
- Velvetleaf plant response rating ([6]; Rate 62 g/ha, Postemergence): 6
- Velvetleaf plant response rating ([6]; Rate 125 g/ha, Postemergence): 6
- Plant response rating, Velvetleaf ([6]; Rate 125 g/ha, Preemergence): 2
- Plant response rating, Velvetleaf ([6]; Rate 250 g/ha, Postemergence): 7
- Plant response rating, Velvetleaf ([6]; Rate 250 g/ha, Preemergence): 4
- Plant response rating, Velvetleaf ([6]; Rate 500 g/ha, Postemergence): 7
- Plant response rating, Velvetleaf ([6]; Rate 500 g/ha, Preemergence): 8
- Plant response rating, Corn [7, 18]: 0
- Corn plant response rating ([7]; Rate 62 g/ha, Postemergence): 1
- Corn plant response rating ([7]; Rate 125 g/ha, Postemergence): 1
- Plant response rating, Corn ([7]; Rate 125 g/ha, Preemergence): 0
- Plant response rating, Corn ([7]; Rate 250 g/ha, Postemergence): 1
- Plant response rating, Corn ([7]; Rate 250 g/ha, Preemergence): 0
- Plant response rating, Corn ([7]; Rate 500 g/ha, Postemergence): 1
- Plant response rating, Corn ([7]; Rate 500 g/ha, Preemergence): 0
- Plant response rating, Sugarbeets [8, 18]: 4
- Sugarbeets plant response rating ([8]; Rate 62 g/ha, Postemergence): 9
- Sugarbeets plant response rating ([8]; Rate 125 g/ha, Postemergence): 10
- Plant response rating, Sugarbeets ([8]; Rate 125 g/ha, Preemergence): 8
- Plant response rating, Sugarbeets ([8]; Rate 250 g/ha, Postemergence): 10
- Plant response rating, Sugarbeets ([8]; Rate 250 g/ha, Preemergence): 9
- Plant response rating, Sugarbeets ([8]; Rate 500 g/ha, Postemergence): 10
- Plant response rating, Sugarbeets ([8]; Rate 500 g/ha, Preemergence): 9
- Plant response rating, Soybean [9, 18]: 0
- Soybean plant response rating ([9]; Rate 62 g/ha, Postemergence): 5
- Soybean plant response rating ([9]; Rate 125 g/ha, Postemergence): 5
- Plant response rating, Soybean ([9]; Rate 125 g/ha, Preemergence): 0
- Plant response rating, Soybean ([9]; Rate 250 g/ha, Postemergence): 7
- Plant response rating, Soybean ([9]; Rate 250 g/ha, Preemergence): 0
- Plant response rating, Soybean ([9]; Rate 500 g/ha, Postemergence): 7
- Plant response rating, Soybean ([9]; Rate 500 g/ha, Preemergence): 0
- Crabgrass plant response rating ([10]; Rate 62 g/ha, Postemergence): 1
- Crabgrass plant response rating ([10]; Rate 125 g/ha, Postemergence): 2
- Plant response rating, Crabgrass ([10]; Rate 125 g/ha, Preemergence): 4
- Plant response rating, Crabgrass ([10]; Rate 250 g/ha, Postemergence): 4
- Plant response rating, Crabgrass ([10]; Rate 250 g/ha, Preemergence): 6
- Plant response rating, Crabgrass ([10]; Rate 500 g/ha, Postemergence): 4
- Plant response rating, Crabgrass ([10]; Rate 500 g/ha, Preemergence): 8
- Plant response rating, Wheat [11, 18]: 0
- Wheat plant response rating ([11]; Rate 62 g/ha, Postemergence): 1
- Wheat plant response rating ([11]; Rate 125 g/ha, Postemergence): 1
- Plant response rating, Wheat ([11]; Rate 125 g/ha, Preemergence): 0
- Plant response rating, Wheat ([11]; Rate 250 g/ha, Postemergence): 1
- Plant response rating, Wheat ([11]; Rate 250 g/ha, Preemergence): 0
- Plant response rating, Wheat ([11]; Rate 500 g/ha, Postemergence): 2
- Plant response rating, Wheat ([11]; Rate 500 g/ha, Preemergence): 1
- Plant response rating, Blackgrass [12, 18]: 0
- Blackgrass plant response rating ([12]; Rate 62 g/ha, Postemergence): 1
- Blackgrass plant response rating ([12]; Rate 125 g/ha, Postemergence): 1
- Plant response rating, Blackgrass ([12]; Rate 125 g/ha, Preemergence): 0
- Plant response rating, Blackgrass ([12]; Rate 250 g/ha, Postemergence): 1
- Plant response rating, Blackgrass ([12]; Rate 250 g/ha, Preemergence): 1
- Plant response rating, Blackgrass ([12]; Rate 500 g/ha, Postemergence): 6
- Plant response rating, Blackgrass ([12]; Rate 500 g/ha, Preemergence): 2
- Plant response rating, Cocklebur [13, 18]: 0
- Cocklebur plant response rating ([13]; Rate 62 g/ha, Postemergence): 5
- Cocklebur plant response rating ([13]; Rate 125 g/ha, Postemergence): 5
- Plant response rating, Cocklebur ([13]; Rate 125 g/ha, Preemergence): 0
- Plant response rating, Cocklebur ([13]; Rate 250 g/ha, Postemergence): 6
- Plant response rating, Cocklebur ([13]; Rate 250 g/ha, Preemergence): 0
- Plant response rating, Cocklebur ([13]; Rate 500 g/ha, Postemergence): 6
- Plant response rating, Cocklebur ([13]; Rate 500 g/ha, Preemergence): 1
- Plant response rating, Nutsedge [14, 18]: 0
- Nutsedge plant response rating ([14]; Rate 62 g/ha, Postemergence): 0
- Nutsedge plant response rating ([14]; Rate 125 g/ha, Postemergence): 0
- Plant response rating, Nutsedge ([14]; Rate 125 g/ha, Preemergence): 0
- Plant response rating, Nutsedge ([14]; Rate 250 g/ha, Postemergence): 0
- Plant response rating, Nutsedge ([14]; Rate 250 g/ha, Preemergence): 0
- Plant response rating, Nutsedge ([14]; Rate 500 g/ha, Preemergence): 0
- Plant response rating, Redroot pigweed [15, 18]: 0
- Redroot pigweed plant response rating ([15]; Rate 62 g/ha, Postemergence): 2
- Redroot pigweed plant response rating ([15]; Rate 125 g/ha, Postemergence): 6
- Plant response rating, Redroot pigweed ([15]; Rate 125 g/ha, Preemergence): 2
- Plant response rating, Redroot pigweed ([15]; Rate 250 g/ha, Postemergence): 7
- Plant response rating, Redroot pigweed ([15]; Rate 250 g/ha, Preemergence): 7
- Plant response rating, Redroot pigweed ([15]; Rate 500 g/ha, Postemergence): 7
- Plant response rating, Redroot pigweed ([15]; Rate 500 g/ha, Preemergence): 8
